Measured values taken from patent US10130590B2, “Methods of treating cancer with atovaquone-related compounds” (DANA-FARBER CANCER INSTITUTE, INC., priority 2013, dated 2018).

Legend:
STAT3 = experiment: STAT3-luc reporter cells, IL-6 stimulated luciferase; assay type: cell-based
Experimental: Western blotting was performed as previously described (Battle T E, Arbiser J, & Frank D A (2005) The natural product honokiol induces caspase dependent apoptosis in B-cell chronic lymphocytic leukemia (B-CLL) cells. Blood 106(2):690-697). Antibodies to phospho-MAPK (9101), total MAPK (9102), phospho-Y705 STAT3 (9131), phospho-S6 (2215), total S6 (2217), phospho-4E-BP1 (9451), total 4E-BP1 (9644), total RSK (9355), phospho-S6K (9234, 85 used at 1:5000), total S6K (2708), phospho-eIF2α (9721, used at 1:1000), total eIF2α (5324), ATF4 (11815, used at 1:1000), PDGFRβ (3169), IGF1Rβ (9750), EGFR (2232), and HER2 (2242) were from Cell Signaling Technology. Phospho-RSK antibody was from R&D (AF889). Antibodies to total STAT3 (sc-482) and gp130 (sc-656, used at 1:1000) were from Santa Cruz Biotechnology. Phospho-S727 STAT3 antibody was described previously (229). REDD1 antibody was from Proteintech (10638-1-AP, used at 1:1000). Antibody recognizing full-length and cleaved ATF6 was from Abcam (ab122897, used at 1:1000). Antibodies to tubulin (T5168) and beta actin (A5316) were from Sigma. All antibodies were used at 1:10000 dilution for western blot unless otherwise noted. For immunoprecipitations, cells were lysed in 500 μl lysis buffer (0.5% NP-40, 150 mM NaCl, 50 mM Tris pH 7.5, with protease and phosphatase inhibitors freshly added at 1:100 [Pierce, PI78443]) on ice for 15 minutes, then centrifuged for 10 minutes at 14,000 RPM and 4° C. The supernatant was transferred to a new tube and incubated with 10 μl JAK2 antibody (Santa Cruz sc-278) or a mix of two TYK2 antibodies, 10 μl of each (Santa Cruz sc-5271 and Cell Signaling Technology 9312). Immunoprecipitation was performed overnight at 4° C. with rotation. The next day, 75 μl of protein A/G beads (Santa Cruz sc-2003) were washed twice in lysis buffer, then incubated with immunoprecipitates overnight as before. The next day, the beads were spun down (1 min. at 7,500 RPM and 4° C.) and washed 3 times with 650 μl lysis buffer for 10 minutes at 4° C. with rotation, then boiled in 50 μl sample buffer+10% β-mercaptoethanol. For Western blot, 20 μl were loaded per lane. For detection of phospho-tyrosine, a mixture of two pan-phospho-tyrosine antibodies (Cell Signaling Technology 9411 and 9416, 1:1000 of each) was used. Antibody to phospho-Y1007/1008 JAK2 was from Cell Signaling 86 Technology (3771, used at 1:1000). Antibody to phospho-Y570 JAK2 was from Millipore (09-241, used at 1:1000). Luminometric Assays Luciferase reporter cell lines were described previously (186). Firefly luciferase values were normalized by concurrent cell viability. Cell viability was measured as ATP-dependent luminescence by Cell Titer Glo (Promega).
To determine if atovaquone inhibits STAT3, it was tested in a cell-based reporter system of STAT3 transcriptional activity (Nelson E A, et al. (2008) Nifuroxazide inhibits survival of multiple myeloma cells by directly inhibiting STAT3. Blood 112(13):5095-5102). These cells lack basal STAT3 activation; upon IL-6 treatment, STAT3 becomes activated and drives transcription of a STAT3-dependent luciferase reporter gene. […] Activity of firefly luciferase was measured and normalized by cell viability (Cell Titer Glo). […]
STAT3-luc reporter cells were pre-treated with atovaquone, buparvaquone or TDBHN (concentration 10, 20, 30, or 40 μM) for 1 hour, then stimulated with IL-6 (10 ng/ml) for 5 hours. The activity of firefly luciferase was measured and normalized by cell viability (Cell Titer Glo).

STAT1 = STAT1 cell-based luciferase reporter system
Experimental: To determine if atovaquone inhibits STAT3, it was tested in a cell-based reporter system of STAT3 transcriptional activity (Nelson E A, et al. (2008) Nifuroxazide inhibits survival of multiple myeloma cells by directly inhibiting STAT3. Blood 112(13):5095-5102). These cells lack basal STAT3 activation; upon IL-6 treatment, STAT3 becomes activated and drives transcription of a STAT3-dependent luciferase reporter gene. The STAT3-luc reporter cells were pre-treated with drug for 1 hour, then stimulated with IL-6 (10 ng/ml) for 5 hr. Activity of firefly luciferase was measured and normalized by cell viability (Cell Titer Glo). […] To determine if atovaquone inhibits STAT3 activity specifically over other transcription factors, it was tested in cell-based reporter systems for STAT1 and STAT5, two other STAT family members, and NF-κB, an unrelated transcription factor.

U266 cells = experiment: Cell viability (Cell Titer Glo), U266; assay type: cell-based, human; conditions: 72 hours
Experimental: (§1) Western blotting was performed as previously described (Battle T E, Arbiser J, & Frank D A (2005) The natural product honokiol induces caspase dependent apoptosis in B-cell chronic lymphocytic leukemia (B-CLL) cells. Blood 106(2):690-697). Antibodies to phospho-MAPK (9101), total MAPK (9102), phospho-Y705 STAT3 (9131), phospho-S6 (2215), total S6 (2217), phospho-4E-BP1 (9451), total 4E-BP1 (9644), total RSK (9355), phospho-S6K (9234, 85 used at 1:5000), total S6K (2708), phospho-eIF2α (9721, used at 1:1000), total eIF2α (5324), ATF4 (11815, used at 1:1000), PDGFRβ (3169), IGF1Rβ (9750), EGFR (2232), and HER2 (2242) were from Cell Signaling Technology. Phospho-RSK antibody was from R&D (AF889). Antibodies to total STAT3 (sc-482) and gp130 (sc-656, used at 1:1000) were from Santa Cruz Biotechnology. Phospho-S727 STAT3 antibody was described previously (229). REDD1 antibody was from Proteintech (10638-1-AP, used at 1:1000). Antibody recognizing full-length and cleaved ATF6 was from Abcam (ab122897, used at 1:1000). Antibodies to tubulin (T5168) and beta actin (A5316) were from Sigma. All antibodies were used at 1:10000 dilution for western blot unless otherwise noted. […] Cell viability was measured as ATP-dependent luminescence by Cell Titer Glo (Promega). […]

HEL cells = experiment: Cell viability (Cell Titer Glo), HEL; assay type: cell-based; conditions: 72 hours
Experimental: as §1

[1] = system: JAK family members (TYK2, JAK2); experiment: JAK auto-phosphorylation in cells (immunoprecipitation, Western blot); assay type: cell-based; conditions: U266 15 μM 1 hour (TYK2); HEL 20 μM 6 hours (JAK2)
Experimental: Western blotting was performed as previously described (Battle T E, Arbiser J, & Frank D A (2005) The natural product honokiol induces caspase dependent apoptosis in B-cell chronic lymphocytic leukemia (B-CLL) cells. Blood 106(2):690-697). Antibodies to phospho-MAPK (9101), total MAPK (9102), phospho-Y705 STAT3 (9131), phospho-S6 (2215), total S6 (2217), phospho-4E-BP1 (9451), total 4E-BP1 (9644), total RSK (9355), phospho-S6K (9234, 85 used at 1:5000), total S6K (2708), phospho-eIF2α (9721, used at 1:1000), total eIF2α (5324), ATF4 (11815, used at 1:1000), PDGFRβ (3169), IGF1Rβ (9750), EGFR (2232), and HER2 (2242) were from Cell Signaling Technology. Phospho-RSK antibody was from R&D (AF889). Antibodies to total STAT3 (sc-482) and gp130 (sc-656, used at 1:1000) were from Santa Cruz Biotechnology. […] Cell viability was measured as ATP-dependent luminescence by Cell Titer Glo (Promega).
To understand how atovaquone inhibits STAT3 phosphorylation, the possibility that atovaquone decreases the kinase activity of JAKs, which are responsible for STAT3 activation in the systems previously tested was considered. To assess kinase activity, the extent of kinase auto-phosphorylation, which provides a cellular readout of kinase activity, was first analyzed. […] Due to technical limitations, tyrosine phosphorylation of other JAK family members was not detected in U266 cells. […]

[2] = system: U266 human multiple myeloma cells; experiment: U266 multiple myeloma xenograft in NSG mice; assay type: in vivo; conditions: 200 mg/kg daily by oral gavage
Experimental: Female NSG mice (obtained from The Jackson Laboratory, Bar Harbor, Me.) were injected subcutaneously with 5×10^6 U266 cells in 30% Matrigel, and tumors were allowed to grow to a volume of approximately 100 mm^3. At that point, animals were treated daily by oral gavage with either vehicle (5% benzyl alcohol in water), generic atovaquone, or Mepron® brand atovaquone (GlaxoSmithKline LLC, Philadelphia, Pa.) at a dose of 200 mg/kg.

Structure (SMILES): O=C1C(O)=C([C@H]2CC[C@H](c3ccc(Cl)cc3)CC2)C(=O)c2ccccc21 [atovaquone, trans-2-[4-(4-chlorophenyl)cyclohexyl]-3-hydroxy-1,4-naphthalenedione]
- STAT-3 reporter gene expression (STAT3; 10, 20, 30, or 40 μM for 1 hour, then IL-6 (10 ng/ml) 5 hours, relative to controls): inhibited STAT-3 reporter gene expression
- luciferase induction by IL-6 (STAT3 transcriptional activity) (STAT3; pre-treated 1 hour, then IL-6 (10 ng/ml) 5 hr, normalized by cell viability): dose-dependent inhibition of luciferase induction by IL-6
- effect on STAT3 activity compared with STAT1, STAT5 and NF-κB (STAT3; reporter systems): much greater
- STAT1 transcription factor activity (STAT1): modestly affected at the higher doses
- viability of U266 cells (U266 cells): killed
- viability of HEL cells (HEL cells): killed
- auto-phosphorylation of JAK family members in cells [1]: inhibited the auto-phosphorylation of JAK family members
- median survival of the treated animals [2]: increase in the median survival
- tumor growth rate ([2]; from tumor volume approximately 100 mm^3): prominent decrease in the growth rate
